Reference: ChEMBL document CHEMBL3045835, “Comparative study of conventional and microwave-assisted synthesis of some Schiff bases and their potential as antimicrobial agents” (2012)
In brackets after ≈: the same amount, converted by molar mass.

Columns and labels:
Assay type in all cases: functional
Pseudomonas aeruginosa [1] = assay: Antibacterial activity against Pseudomonas aeruginosa MTCC 424 after 24 hr by broth dilution method; settings: MTCC 424, 24 h
Micrococcus luteus = assay: Antibacterial activity against Micrococcus luteus MTCC 1538 after 24 hr by broth dilution method; settings: MTCC 1538, 24 h
Bacillus pumilus = assay: Antibacterial activity against Bacillus pumilus MTCC 1456 after 24 hr by broth dilution method; settings: MTCC 1456, 24 h
Staphylococcus aureus = assay: Antibacterial activity against Staphylococcus aureus MTCC 1430 after 24 hr by broth dilution method; settings: MTCC 1430, 24 h
Bacillus subtilis = assay: Antibacterial activity against Bacillus subtilis MTCC 441 after 24 hr by broth dilution method; settings: MTCC 441, 24 h
Pseudomonas fluorescens [2] = assay: Antibacterial activity against Pseudomonas fluorescens MTCC 2421 at 1000 ug/ml after 18 hr by cup-plate method; settings: MTCC 2421, 18 h, read-out: DIZ
Pseudomonas fluorescens [3] = assay: Antibacterial activity against Pseudomonas fluorescens MTCC 2421 at 1500 ug/ml after 18 hr by cup-plate method; settings: MTCC 2421, 18 h, read-out: DIZ
Pseudomonas fluorescens [4] = assay: Antibacterial activity against Pseudomonas fluorescens MTCC 2421 at 500 ug/ml after 18 hr by cup-plate method; settings: MTCC 2421, 18 h, read-out: DIZ
Pseudomonas fluorescens [5] = assay: Antibacterial activity against Pseudomonas fluorescens MTCC 2421 at 200 ug/ml after 18 hr by cup-plate method; settings: MTCC 2421, 18 h, read-out: DIZ
Penicillium chrysogenum [6] = assay: Antifungal activity against Penicillium chrysogenum MTCC 161 at 1500 ug/ml after 18 hr by cup-plate method; settings: MTCC 161, 18 h, read-out: DIZ
Penicillium chrysogenum [7] = assay: Antifungal activity against Penicillium chrysogenum MTCC 161 at 1000 ug/ml after 18 hr by cup-plate method; settings: MTCC 161, 18 h, read-out: DIZ
Penicillium chrysogenum [8] = assay: Antifungal activity against Penicillium chrysogenum MTCC 161 at 500 ug/ml after 18 hr by cup-plate method; settings: MTCC 161, 18 h, read-out: DIZ
Penicillium chrysogenum [9] = assay: Antifungal activity against Penicillium chrysogenum MTCC 161 at 200 ug/ml after 18 hr by cup-plate method; settings: MTCC 161, 18 h, read-out: DIZ
Penicillium chrysogenum [10] = assay: Antifungal activity against Penicillium chrysogenum MTCC 161 at 100 ug/ml after 18 hr by cup-plate method; settings: MTCC 161, 18 h, read-out: DIZ
Aspergillus niger [11] = assay: Antifungal activity against Aspergillus niger MTCC 2546 at 1000 ug/ml after 18 hr by cup-plate method; settings: MTCC 2546, 18 h, read-out: DIZ
Aspergillus niger [12] = assay: Antifungal activity against Aspergillus niger MTCC 2546 at 1500 ug/ml after 18 hr by cup-plate method; settings: MTCC 2546, 18 h, read-out: DIZ
Aspergillus niger [13] = assay: Antifungal activity against Aspergillus niger MTCC 2546 at 500 ug/ml after 18 hr by cup-plate method; settings: MTCC 2546, 18 h, read-out: DIZ
Aspergillus niger [14] = assay: Antifungal activity against Aspergillus niger MTCC 2546 at 100 ug/ml after 18 hr by cup-plate method; settings: MTCC 2546, 18 h, read-out: DIZ
Aspergillus niger [15] = assay: Antifungal activity against Aspergillus niger MTCC 2546 at 200 ug/ml after 18 hr by cup-plate method; settings: MTCC 2546, 18 h, read-out: DIZ
Escherichia coli [16] = assay: Antibacterial activity against Escherichia coli MTCC 1573 at 1500 ug/ml after 18 hr by cup-plate method; settings: MTCC 1573, 18 h, read-out: DIZ
Escherichia coli [17] = assay: Antibacterial activity against Escherichia coli MTCC 1573 at 500 ug/ml after 18 hr by cup-plate method; settings: MTCC 1573, 18 h, read-out: DIZ
Escherichia coli [18] = assay: Antibacterial activity against Escherichia coli MTCC 1573 at 1000 ug/ml after 18 hr by cup-plate method; settings: MTCC 1573, 18 h, read-out: DIZ
Escherichia coli [19] = assay: Antibacterial activity against Escherichia coli MTCC 1573 at 200 ug/ml after 18 hr by cup-plate method; settings: MTCC 1573, 18 h, read-out: DIZ
Escherichia coli [20] = assay: Antibacterial activity against Escherichia coli MTCC 1573 at 100 ug/ml after 18 hr by cup-plate method; settings: MTCC 1573, 18 h, read-out: DIZ
Pseudomonas fluorescens [21] = assay: Antibacterial activity against Pseudomonas fluorescens MTCC 2421 at 100 ug/ml after 18 hr by cup-plate method; settings: MTCC 2421, 18 h, read-out: DIZ
Pseudomonas aeruginosa [22] = assay: Antibacterial activity against Pseudomonas aeruginosa MTCC 424 at 1500 ug/ml after 18 hr by cup-plate method; settings: MTCC 424, 18 h, read-out: DIZ
Pseudomonas aeruginosa [23] = assay: Antibacterial activity against Pseudomonas aeruginosa MTCC 424 at 1000 ug/ml after 18 hr by cup-plate method; settings: MTCC 424, 18 h, read-out: DIZ

MIC (Pseudomonas aeruginosa [1]): 300 µg/mL (≈ 1250 µM)
MIC (Micrococcus luteus): 300 µg/mL (≈ 1250 µM)
MIC (Bacillus pumilus): 400 µg/mL (≈ 1670 µM)
MIC (Staphylococcus aureus): 400 µg/mL (≈ 1670 µM)
MIC (Bacillus subtilis): 400 µg/mL (≈ 1670 µM)
SMILES: O=c1c(/C=N/c2nc[nH]n2)coc2ccccc12
zone of inhibition at 1000 µg/mL (Pseudomonas fluorescens [2]): 19 mm
zone of inhibition at 1500 µg/mL (Pseudomonas fluorescens [3]): 20 mm
zone of inhibition at 500 µg/mL (Pseudomonas fluorescens [4]): 17 mm
zone of inhibition at 200 µg/mL (Pseudomonas fluorescens [5]): 15 mm
zone of inhibition at 1500 µg/mL (Penicillium chrysogenum [6]): 22 mm
zone of inhibition at 1000 µg/mL (Penicillium chrysogenum [7]): 20 mm
zone of inhibition at 500 µg/mL (Penicillium chrysogenum [8]): 19 mm
zone of inhibition at 200 µg/mL (Penicillium chrysogenum [9]): 17 mm
zone of inhibition at 100 µg/mL (Penicillium chrysogenum [10]): 15 mm
zone of inhibition at 1000 µg/mL (Aspergillus niger [11]): 20 mm
zone of inhibition at 1500 µg/mL (Aspergillus niger [12]): 22 mm
zone of inhibition at 500 µg/mL (Aspergillus niger [13]): 19 mm
zone of inhibition at 100 µg/mL (Aspergillus niger [14]): 16 mm
zone of inhibition at 200 µg/mL (Aspergillus niger [15]): 18 mm
zone of inhibition at 1500 µg/mL (Escherichia coli [16]): 18 mm
zone of inhibition at 500 µg/mL (Escherichia coli [17]): 15 mm
zone of inhibition at 1000 µg/mL (Escherichia coli [18]): 16 mm
zone of inhibition at 200 µg/mL (Escherichia coli [19]): 14 mm
zone of inhibition at 100 µg/mL (Escherichia coli [20]): 13 mm
zone of inhibition at 100 µg/mL (Pseudomonas fluorescens [21]): 13 mm
zone of inhibition at 1500 µg/mL (Pseudomonas aeruginosa [22]): 20 mm
zone of inhibition at 1000 µg/mL (Pseudomonas aeruginosa [23]): 18 mm
